These results are taken from patent US10246486B2, “Macrocyclic inhibitors of flaviviridae viruses” (Gilead Sciences, Inc., priority 2012, dated 2019).

One test has as its target cyclophilin A (Homo sapiens, UniProt P62937). Description: biochemical.
In test [1] the test system is HCV replicon 1a (human hepatoma Huh-7 cell line harboring a HCV replicon). Description: microbe, parasite or virus in culture. In kind it is cell-based.

cyclophilin A, sequence (P62937 whole entry, species assumed): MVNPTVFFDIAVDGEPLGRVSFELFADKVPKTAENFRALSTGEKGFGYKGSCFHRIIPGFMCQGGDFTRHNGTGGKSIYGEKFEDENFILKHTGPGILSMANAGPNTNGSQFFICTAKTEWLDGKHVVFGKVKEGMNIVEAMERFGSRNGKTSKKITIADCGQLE

For the molecule `CC(C)[C@@H]1NC(=O)[C@@H]([C@H](C)O)/C=C/c2ccc3ccc(nc3c2)[C@@H](C)OC(=O)[C@@H]2CCCN(N2)C(=O)[C@H](C)NC1=O` [Example 31], the half-inhibitory concentration (IC50) (usually the midpoint of a concentration-inhibition curve) on cyclophilin A is less than 0.1 µM.
Regarding `C[C@@H]1NC(=O)[C@H](CCn2ccnn2)NC(=O)C(C)(C)/C=C/c2cc3cc(ccc3cn2)[C@@H](C)OC(=O)[C@@H]2CCCN(N2)C1=O` [Example 50], in test [1], the “Replicon 1a % inhibition at 1 μm” value came out at 12%.
As to `CO[C@@H]1/C=C/c2cc3cc(ccc3cn2)[C@@H](C)OC(=O)[C@@]2(C)CCCN(N2)C(=O)[C@H](C)NC(=O)[C@H](C(C)C)NC(=O)[C@@H]1C` [Example 33], the inhibition (usually the percentage by which the read-out fell short of the control) at 1 µM in test [1] (Hepatitis C virus, Huh-7, 72 h, read-out: Replicon 1a % inhibition at 1 μm) worked out at 14%.
At cyclophilin A, `CC(C)[C@@H]1NC(=O)/C=C\c2cc3cc(ccc3cn2)[C@@H](C)NC(=O)[C@@H]2CCCN(N2)C(=O)[C@H](C)NC1=O` [Example 12] gave an IC50 of 1 to 10 µM.
For `CC(C)[C@@H]1NC(=O)C(C)(C)/C=C/c2ccc3ccc(nc3c2)[C@@H](C(F)(F)F)NC(=O)[C@@H]2CCCN(N2)C(=O)[C@H](C)NC1=O` [Example 13], the “Replicon 1a % inhibition at 1 μm” value in test [1] was determined as 87%.
